Experimental data as given in a melting point compilation (Tetko et al.; mined from patent text by program, amines drawn as free bases though some values may be those of a salt).

Structure (SMILES)	melting point
CC(=CC(=O)O)c1ccc2[nH]cc(-c3cc(C(C)(C)C)cc(C(C)(C)C)c3OCC(F)F)c2c1	135 to 145 °C
CSC1=NC(=O)C(=C(C)c2cc(C(C)(C)C)c(O)c(C(C)(C)C)c2)S1	206 to 209 °C
COc1ccc(OC)c(C=CC(=O)C2C(=O)OC(=O)C(C(C)=O)=C2O)c1 (stereo not drawn)	194 to 195 °C
Fc1ccc2[nH]cc(C3=CCN(CC4CCc5ccc6ncccc6c5O4)CC3)c2c1 (stereo not drawn)	148 °C
CCn1cc(C(=O)O)c(=O)c2cc(F)c(N3CC4CCCC3CN4C)c(F)c21 (stereo not drawn)	> 300 °C
Cc1cc(=O)c(C(=O)Nc2cccc(C)c2C)c(C)o1	174 to 176 °C
COc1ccc(O)c(Br)c1	37 to 38 °C
COC(=O)C1CCc2c([nH]c3ccc(Cl)cc23)C1 (stereo not drawn)	175 to 176 °C
CCCCCCCCCCCCCCCCCC(=O)NC(C)C(=O)NC(CCC(=O)NC(C=CCCC(=O)O)C(=O)O)C(=O)O (stereo not drawn)	200 °C
COc1ccc2snnc2c1S(=O)(=O)Cl	131 to 134 °C
COC(=O)c1cc2c(N3CCNCC3)cccc2[nH]1	177 to 180 °C
Cc1nc(Cl)c([N+](=O)[O-])c(NCCOCCNC(=O)OC(C)(C)C)c1C	70 to 73 °C
N=C(N)NCCCCOc1ccc2c(c1)CC(CCC(=O)O)C(=O)N2 (stereo not drawn)	152 to 155 °C
Cc1ccc(C2CCN(C(=O)CCC(=O)c3ccc4c(c3)CN(C)CC4)CC2)cc1	97 to 99 °C
Cc1c(CC(=O)O)c2cc(O)ccc2n1C(=O)c1ccc(Cl)c(Cl)c1	177 to 179 °C
O=C1NC(=O)c2c1c(-c1ccccc1)cc1c2c2cc(O)ccc2n1CCn1ccnc1	> 345 °C
c1ccc(-n2c3ccccc3c3ccccc32)cc1	96 to 97 °C
CCC(CC)(CC(=O)Nc1cccc(/C=C/c2nc(C3CCCC3)cs2)c1)C(=O)O	172 to 174 °C
CCOC(=O)c1cn2c3c(ccc(OC)c3c1=O)OCC2C (stereo not drawn)	165 to 168 °C
N#CC=Cc1cccc(Br)c1	62 °C

Structure (SMILES)	melting point
c1ccc(N=C(NC(=Nc2ccccc2)N2CCCCO2)c2ccccc2)cc1	187 to 190 °C
Cc1ccc(C)n1-c1cc(F)c(C2=CCSCC2)c(F)c1	118 to 119 °C
CNS(=O)(=O)c1ccc2c(c1)C=C(C(=O)O)C(C(F)(F)F)O2 (stereo not drawn)	208 to 209 °C
Cn1cc(C(=O)NCc2ccc(Cl)cc2)c(=O)c2cc(CC3CCOCC3)cc(C#CCO)c21	166 to 168 °C
COC1CCc2oc3ccc(Br)cc3c(=O)c2C1 (stereo not drawn)	139 to 142 °C
NS(=O)(=O)c1ccc(SCCCO)c(C(=O)O)c1	204 to 206 °C
c1ccc(-c2cn(-c3ncc(C4CCCCC4)c4ccccc34)cn2)cc1	169 to 170 °C
CC(C)(C)OC(=O)[C@H](Cc1ccccc1)NC(=O)CNC1Cc2ccccc2C1	117 to 120 °C
COc1ccc(S(=O)(=O)[C@H](CCCCc2ccccc2)[C@@H](CCS(=O)(=O)c2ccccc2)C(=O)NO)cc1OC	78 to 81 °C
O=C(Nc1ccc(N2CCN(C(=O)Nc3ccc(OCCO)cc3C(F)(F)F)CC2)cc1)Nc1cccc2c1OCCO2	127 to 129 °C
CSc1ccc(-c2n[nH]c(=O)cc2-c2ccc(F)cc2)cc1	197 to 198 °C
Brc1ccccc1-c1c(Br)cccc1Br	95 to 97 °C
CCOc1cc2c(Cl)c(C#N)cnc2cc1F	165 to 166 °C
CCCn1nnc2c(Nc3ccc(C(C)C)cc3Br)nc(C)nc21	80 to 81 °C
Cn1cc([N+](=O)[O-])nc1C(Cl)Cl	153 °C
Oc1cc2c(cc1-c1nc3cc(-c4ccccc4)ccc3o1)oc1ccccc12	293 to 295 °C
COC(=O)c1cc(I)ccc1NS(C)(=O)=O	119 to 120 °C
CCOCC(=O)Nc1occ(C(C)(C)C)c1C#N	98 °C
Cc1c(C(=O)CCl)c(C)n(C)c1C(=O)c1ccc(Cl)cc1Cl	100 to 102 °C
CCC(O)c1c(C)nc2ccccc2c1N (stereo not drawn)	220 to 230 °C

Structure (SMILES)	melting point
CC(C)n1c(=O)nc(-c2ccc3c(c2)OCO3)c2cc3c(cc21)OCO3	125 to 127 °C
CCCCCCCCC#Cc1ccc2sc(C=O)cc2c1	45 to 47 °C
OCC(O)(CO)c1ccc(F)cc1F	58 to 59 °C
CC(C)(C)NC(=O)c1ccc(C(F)(F)F)cc1	146 to 148 °C
Cc1ccc(CCc2cc3c(s2)NC(=S)CN=C3c2ccccc2Cl)cc1	190 to 191 °C
COc1ccc(C=C(C#N)C(N)=O)c([N+](=O)[O-])c1OC	194 to 195 °C
CN1CCN(c2nc3ccccc3n2CCOc2ccccc2)CC1	152 to 154 °C
Cc1cc(NCCO)c2nn(C)c(C)c2n1	186 to 189 °C
CN1CCN(C(=O)c2cnc(S)n2Cc2cc(F)cc(F)c2)CC1	243 to 244 °C
COC(=O)[C@@H]1C[C@H](C(=O)OC(C)(C)C)N(C(=O)CNC(=O)Nc2cccc(C)c2)[C@@H]1c1ccccc1 (racemic)	130 °C
Cc1ccccc1-c1c(C(=O)O)c(=O)n(C)c2ccc(Cl)cc12	202 to 203 °C
CC1(C)[C@@H](CS(=O)(=O)c2ccc(S(C)(=O)=O)cc2)CC[C@@]1(C)NCC(=O)N1C[C@@H](F)C[C@H]1C#N	163 to 166 °C
O=C(O)C(=O)CC(=O)c1cccn1Cc1ccccc1Br	176 to 180 °C
Cc1cccc(NC(=O)NCC2(c3ccccc3)CCCCC2)c1	145 to 147 °C
Cc1nc(N2CCN(CC3CC3(F)F)C2=O)sc1C(=O)NCc1cncs1 (stereo not drawn)	182 to 184 °C
O=C(O)c1cn(C2CC2)c2c(F)c(N3CCC(n4nncc4C(=O)O)C3)c(F)cc2c1=O (stereo not drawn)	214 °C
C=CCN(c1nc(N2CCN(C(=O)n3ccnc3)CC2)nc(N(CC=C)C2CCCCC2)n1)C1CCCCC1	132 to 135 °C
Clc1cc(N2CCN(CCOc3ccc(Br)cc3)CC2)c(Cl)nn1	124 to 126 °C
CCOC(=O)C(=O)CC(=O)c1cccc(Cl)c1Cl	57 to 58 °C

The next lines start with the values.

melting point	Structure (SMILES)
158 to 159 °C	O=C(Nc1cccc2ccccc12)OCc1ccc(CO)cc1
62 to 64 °C	CN(C(=O)CCSC(c1ccccc1)(c1ccccc1)c1ccccc1)c1cn(-c2cccnc2)nc1Cl
175 to 180 °C	COc1ccc(CN2Cc3cc(N(C)C)ccc3N=C2N)cc1
223 to 224 °C	CCc1nnc2nc(-c3cccc(C(F)(F)F)c3)ccn12
114 °C	CC(c1ccc(F)cc1)N1CCN(c2cc(Oc3cccc4ccncc34)ncn2)CC1 (stereo not drawn)
116 to 118 °C	CCCCn1nc(CCc2cccs2)nc1Cc1ccc(-c2ccccc2-c2nnn[nH]2)nc1
159 to 160 °C	Cc1oc(-c2cccs2)nc1COc1ccc(Cn2cc(CCC(=O)O)c(-c3ccccc3)n2)cc1
77 to 79 °C	O=C(Oc1ccc2ncccc2c1)c1ccccc1
218 to 219 °C	COC(=O)[C@@](C#N)(Cc1ccc(Br)cc1)[C@H](c1ccccc1OC)c1cccc2ccccc12 (relative stereo)
115 to 116 °C	CCOC(=O)C1Cc2cc3c(-c4ccccc4F)noc3cc2O1 (stereo not drawn)
94 to 95 °C	CCCCCc1c(C(C)C)nc(C(C)C)c(CO)c1-c1cccc(Cl)c1
70 to 71 °C	O=C(OCCOCCOCCO)C(=O)c1ccc(OCCOc2ccc3ccccc3c2)cc1
205 to 210 °C	CC(C)(C)c1cc(C(=O)Nc2cccc(SCc3cncc4ccccc34)c2)ccc1O
126 to 127 °C	CC1=C(C)C(=O)C(C(CCCCCC(=O)O)c2cccnc2)=C(C)C1=O (stereo not drawn)
219 °C	CCOC(=O)c1ncn2c(C(F)F)cc(-c3ccc(C(F)(F)F)cc3)nc12
179 to 181 °C	COc1cccc(CNS(=O)(=O)c2ccc(C(CC3CCCC3)C(=O)Nc3nc4ccc(OC)nc4s3)cc2)c1 (stereo not drawn)
206 to 207 °C	CCOC(=O)c1ccc(Nc2nnc(-c3ccc(Oc4ccccc4)cc3)s2)cc1
178 to 181 °C	O=C(O)C1CN(c2ccc(-c3noc(CCl)n3)cc2)C(=O)O1 (stereo not drawn)
147 to 150 °C	CC(N)Oc1cccc2c1ccn2S(=O)(=O)c1ccccc1F (stereo not drawn)
94 to 97 °C	O=C(COc1ccccc1)N[C@@H](Cc1ccc(OCCc2coc(-c3ccccc3)n2)cc1)C(=O)O

melting point	Structure (SMILES)
148 to 151 °C	CN(Cc1cc2c(=O)c(C(=O)NCc3ccc(Cl)cc3)cn(C)c2o1)CC(O)c1cnccn1 (single isomer, unassigned; (+))
195 °C	Cc1ccc(C2CC(C(C)(C)C)=NN2c2ccc(C(=O)O)cc2)cc1 (stereo not drawn)
183 to 184 °C	CCCC1=C(C(=O)OCC)C(C(C)C)n2ncc(C(=O)OCC)c2N1Cc1ccc(-c2ccccc2-c2nnn[nH]2)cc1 (stereo not drawn)
59 to 60 °C	CCc1cccc2cc(C(C)=O)oc12
155 to 157 °C	CC(C)S(=O)(=O)NCC(C)(F)c1ccc(-c2ccc(CC#N)cc2)cc1 (stereo not drawn)
103 to 105 °C	Cc1nc2cccc(Cl)c2n1-c1ccccc1
65 to 67 °C	COc1ccc(Sc2ccccc2CC#N)cc1
141 to 142 °C	CN(C)C(=O)c1ccc(C=CC(=O)c2cccc(OCc3ccc4ccc(Cl)cc4n3)c2)o1
171 to 172 °C	CCOC(=O)c1cnn(CC(O)c2ccccc2)c1NC(=S)NC(=O)c1ccccc1 (stereo not drawn)
205 to 207 °C	CCOC(=O)c1cn2c(cc(Br)c3ccccc32)n1
72 to 75 °C	CCCc1c(OCCCCCc2ccc(OC)c(OC)c2)ccc(C(C)=O)c1O
159 to 160 °C	O=C(COc1ccccc1)NC1C(=O)N(C(O)(Cc2ccccc2)C(=O)O)C1CI (stereo not drawn)
87.9 to 89.4 °C	CCc1ccc(OCC(=O)N(Cc2nc(-c3cccnc3)no2)C(C)C)cc1
126 to 128 °C	Fc1ccc(OCCCN2CCN(c3ncc4ccccc4n3)CC2)cc1
213 to 214 °C	CC(C)(C)c1ccc(CNC(=O)C(Cc2ccccc2)NC(=O)Nc2n[nH]c(=S)s2)cc1 (stereo not drawn)
250 to 252 °C	Clc1ccc2c(c1)Nc1ncccc1N=C2c1ccccc1
220 to 222 °C	COc1cccc(COc2ccc3c(c2)C=C(C(=O)O)CCS3(=O)=O)c1
132 to 136 °C	c1ccc(-c2noc(-c3cccc4ccccc34)n2)nc1
194 to 195 °C	C=Cc1c(N)nc(-c2ccc(Cl)nc2)nc1C(=O)OC
